According to patent US10662210B2, “Compositions and methods comprising osmium for the treatment of cancers” (Massachusetts Institute of Technology, priority 2014, dated 2020):

Assays:
[1] = test system: HMLER CSC-depleted; assay: Cytotoxicity against CSC-depleted breast cancer cells; assay type: cell-based
Description: (§1) Cancer relapse is strongly linked to the existence of CSCs. […] Conventional chemotherapy and radiotherapy are often ineffective against CSCs. Although current therapies effectively reduce tumor mass by destroying the bulk of cancer cells, they are unable to remove CSCs, which persist and generate new tumors, often of a far more aggressive nature. Therefore, in order to improve clinical outcomes, treatments must have the ability to kill the entirety of cancer cells, including CSCs. The osmium compound, described in Formula (I), wherein X^1, X^2, and X^3 were chloride ligands and the bidentate ligand was a 1,10-phenanthroline ligand, was able to kill breast cancer cells (HMLER) enriched with CSCs, 2.3-fold better than CSC-depleted breast cancer cells. […] The selectivity of the osmium compound can be seen in Table 2 as well as FIGS. 17A-B and 18.
(§2) The colorimetric MTT assay was used to determine the toxicity of the osmium complexes and cisplatin. Cells (2×10^3) were seeded in each well of a 96-well plate. After incubating the cells overnight, various concentrations of test compound (0.3-100 μM) were added and incubated for 72 h (total volume 200 μL). The test compounds were prepared as 10 mM solutions in DMSO and diluted using media. The final concentration of DMSO in each well was 0.5% and this amount was present in the untreated control as well. Cisplatin was prepared as a 5 mM solution in PBS and diluted further using media. After 72 h, the medium was removed, 200 μL of a 0.4 mg/mL solution of MTT in DMEM or RPMI was added, and the plate was incubated for an additional 1-2 h. The DMEM/MTT or RPMI/MTT mixture was aspirated and 200 μL of DMSO was added to dissolve the resulting purple formazan crystals. The absorbance of the solution wells was read at 550 nm. Absorbance values were normalized to DMSO-containing control wells and plotted as concentration of test compound versus % cell viability. IC50 values were interpolated from the resulting dose dependent curves. The reported IC50 values are the average from at least three independent experiments, each of which consisted of six replicates per concentration level.

[2] = test system: HMLER^tax CSC-enriched; assay: Cytotoxicity against CSC-enriched breast cancer cells; assay type: cell-based
Description: as §1, §2

[3] = test system: ct-DNA; assay: DNA binding kinetics (osmium bound to precipitated ct-DNA); settings: 25 μM complex, 250 μM ct-DNA, 37° C.
Protocol: The osmium compounds were hypothesized to induce cell death through DNA interactions. Therefore, the interaction of 2 or 4 with pUC19 plasmid DNA was investigated using gel electrophoresis; the results of which are as shown in FIG. 6. As the concentration of 2 increased, there was a clear increase in the amount of nicked circular, and a concomitant decrease in the amount of supercoiled, plasmid DNA. At concentrations >250 μM, the bands in the gel smeared and then disappeared. […] The DNA binding kinetics of 2 and 4 were studied by measuring the amount of osmium bound to precipitated ct-DNA; the results of which are as shown in FIG. 7. The half-life of this reaction for 2 was 2 hours.
The amount of osmium covalently bound to ct-DNA was determined by modification of a previously reported protocol. A solution of ct-DNA (0.25 mM, nucleotide) was incubated with 2 or 4 at a bp:metal complex ratio of 5:1 at 37° C. in 1 mM sodium phosphate buffer, pH 7.4, containing 3 mM NaCl. At certain time points, a 250 μL aliquot was removed and the DNA was precipitated by adding 10 μL of NaCl (5 M) and 1.0 mL of EtOH (stored at 4° C.). The solution was centrifuged to remove DNA, and the concentration of unbound osmium was determined by GF-AAS.

[4] = test system: phosphorylated H2AX (γH2AX), CHK2, CHK1, p53 (Ser15) in A2780 cells; assay: Immunoblotting analysis, DNA damage pathway; assay type: cell-based, human; settings: 72 hours
Protocol: To gain further insight into the modes of action of 2 and 4, immunoblotting analyses were conducted to monitor changes in expression of biomarkers related to the DNA damage pathway (FIG. 8). […] This difference could be related to steric effects imposed by the phenyl groups in 4.
A2780 cells (5×10^5 cells) were incubated with the osmium complexes (concentrations, μM) for 72 h at 37° C. Cells were washed with PBS, scraped into SDS-PAGE loading buffer (64 mM Tris-HCl (pH6.8)/9.6% glycerol/2% SDS/5% β-mercaptoethanol/0.01% Bromophenol Blue), and incubated at 95° C. for 10 min. Whole cell lysates were resolved by 4-20% sodium dodecylsulphate polyacylamide gel electrophoresis (SDS-PAGE; 200 V for 25 min) followed by electro transfer to polyvinylidene difluoride membrane, PVDF (350 mA for 1 h). Membranes were blocked in 5% (w/v) non-fat milk in PBST (PBS/0.1% Tween 20) and incubated with the appropriate primary antibodies (Cell Signalling Technology and Santa Cruz). After incubation with horseradish peroxidase-conjugated secondary antibodies (Cell Signalling Technology), immune complexes were detected with the ECL detection reagent (BioRad) and analyzed using an Alpha Innotech ChemiImager™ 5500 fitted with a chemiluminescence filter.

[5] = test system: ER of A2780 cells; assay: Fluorescence microscopy of ER size (ER tracker Blue); assay type: cell-based, human; settings: 10 μM
Protocol: This finding led to the investigation of the possibility that 4 may induce endoplasmic reticulum (ER) stress. Co-administration of 4 and salubrinal (10 μM), a known ER stress inhibitor, reduced the cytotoxicity of 4 in A2780 cells. […] To further validate the ER as the main target for 4, the expression of proteins related to the unfolded protein response (UPR) was monitored. […] ER membrane expansion is widely associated with ER stress. With this fact in mind the ER size of A2780 cells upon incubation with 4 were examined using fluorescence microscopy. Relative to untreated controls (FIG. 3B), cells exposed to 4 (10 μM) for 4 h had 25.1% larger ER coverage (FIG. 3C). […]
A2780 cells (1×10^4) were incubated with and without 4 (10 μM) for 6 h. […] Fluorescence imaging experiments were performed using a Zeiss Axiovert 200M inverted epifluorscence microscope with a Hamamatsu EM-CCD digital camera C9100 and a MS200 XY Piezo Z stage (Applied Scientific Instruments, Inc.). […] The exposure time for acquisition of fluorescence images was kept constant for each series of images at each channel. The ER and whole cell size was quantified using ImageJ (version 1.45, NIH). The size of the whole cell was measured by tracing the outline of the cell membrane in the DIC view. The size of the ER was measured by tracing the outline of emission observed from ER tracker Blue in the DAPI (blue) channel. […]

| Structure (SMILES) | IC50 [1] [µM] | IC50 [2] [µM] | HMLER^tax selectivity ([2]; CSC-enriched vs CSC-depleted) | half-life of ct-DNA binding reaction [3] [h] | expression of DNA damage pathway biomarkers [4] | larger ER coverage relative to untreated controls ([5]; 4 h) [%] | ER size relative to the whole cell ([5]; treated samples) |
| --- | --- | --- | --- | --- | --- | --- | --- |
| [N]#[Os]1([Cl])([Cl])([Cl])[N]2C=CC=c3ccc4c(c32)[N]1C=CC=4 [Complex 2, OsN(1,10-phenanthroline)Cl3] | 11.2 | 4.91 | 2.31 | 2 | marked increase in expression of the phosphorylated forms of H2AX (γH2AX), CHK2, CHK1, and p53 (Ser15) |  |  |
| [N]#[Os]1([Cl])([Cl])([Cl])[N]2C=CC(c3ccccc3)=c3ccc4c(c32)[N]1C=CC=4c1ccccc1 [Complex 4, OsN(4,7-diphenyl-1,10-phenanthroline)Cl3] |  |  |  |  | little signs of DNA damage | 25.1 | about 55% |
